In ChEMBL document CHEMBL1154259, “Cell recognition enhanced enzyme hydrolysis of a model peptide-drug conjugate” (Bioorg Med Chem Lett, 2009):
Calls of active or inactive are those of the source. The calls are words filed in the database; no cut-off is given here. Where a SMILES comes first, the peptide text is derived from it. The star is where a group is joined. ACC = NC(=O)Cc1cc(=O)oc2cc(N*)ccc12

Columns and labels:
Papain (Carica papaya) = target: T1, Papain (Carica papaya) (UniProt P00784); test: Activity at Carica papaya papain expressed in human A375 cells assessed as 7-amino-4-carbamoylmethylcoumarin release; type: cell-based; details: A-375
T1 sequence (whole entry): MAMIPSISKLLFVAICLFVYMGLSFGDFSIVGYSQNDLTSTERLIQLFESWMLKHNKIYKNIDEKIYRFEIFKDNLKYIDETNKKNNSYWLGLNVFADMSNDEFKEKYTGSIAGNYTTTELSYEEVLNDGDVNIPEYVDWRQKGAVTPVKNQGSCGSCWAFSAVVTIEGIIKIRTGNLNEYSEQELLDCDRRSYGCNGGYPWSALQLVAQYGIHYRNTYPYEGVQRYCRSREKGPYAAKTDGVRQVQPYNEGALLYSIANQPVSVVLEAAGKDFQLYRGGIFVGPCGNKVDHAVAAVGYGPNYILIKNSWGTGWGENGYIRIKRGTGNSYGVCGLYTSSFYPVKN

[1] = target: Integrin alpha-4/beta-1 (Homo sapiens) (UniProt P05556+P13612); test: Binding affinity to human integrin alpha4beta1 expressed in human A375 cells by flow cytometry; type: cell-based; details: A-375

| SMILES | Activity (Papain (Carica papaya)) [ng/min] | Activity [1] |
| --- | --- | --- |
| CC(C)C[C@H](N)C(=O)N[C@@H](CC(=O)O)C(=O)N[C@H](C(=O)N[C@@H](CCCNC(=N)N)C(=O)N[C@@H](Cc1c[nH]c2ccccc12)C(=O)N[C@@H](CCC(N)=O)C(=O)N[C@@H](Cc1ccc(O)cc1)C(=O)N[C@H](C(=O)N1CCC[C@H]1C(=O)NCC(=O)N[C@@H](CCCCN)C(=O)N[C@@H](Cc1ccccc1)C(=O)N[C@H](C(=O)N[C@H](C(=O)N[C@@H](CCC(N)=O)C(=O)Nc1ccc2c(CC(N)=O)cc(=O)oc2c1)C(C)C)[C@H](C)O)C(C)C)C(C)C | 15.6 |  |
| CC(C)[C@H](NC(=O)[C@@H](NC(=O)[C@H](Cc1ccccc1)NC(=O)[C@H](CCCCN)NC(=O)CNC(=O)[C@@H]1CCCN1C(=O)[C@@H](NC(=O)[C@H](Cc1ccc(O)cc1)NC(=O)[C@H](CCC(N)=O)NC(=O)[C@H](Cc1c[nH]c2ccccc12)NC(=O)[C@@H](N)CCCNC(=N)N)C(C)C)[C@@H](C)O)C(=O)N[C@@H](CCC(N)=O)C(=O)Nc1ccc2c(CC(N)=O)cc(=O)oc2c1 (H-RWQYVPGKFTVQ-{ACC}) |  | inactive |
